Measured values: US9381193B2, “Contraceptive methods and compositions” (WASHINGTON UNIVERSITY, priority 2011, dated 2016)

How the values were obtained:
blastocysts = test: ATP and citrate levels in blastocysts cultured from two-cell embryos with DHEA; type: cell-based, mouse
Protocol: Mice were superovulated and mated with males of known fertility. Forty-five hours after injection with hCG, the oviducts were removed. Two-cell embryos were collected by flushing the oviducts with human tubal fluid media (HTF) with 0.25% BSA. Embryos were cultured in HTF with BSA and either DMSO, 10 μM DHEA or 100 μM DHEA for 72 hours. In vitro cultured blastocysts were transferred to 2.5 days postcoitus (dpc) pseudopregnant ICR females. Resulting embryos and placentas were collected at 14.5 dpc and fixed with Bouin's solution, embedded in paraffin and sectioned.
(§1) Denuded oocytes or cultured blastocysts were frozen on a glass slide with liquid nitrogen and dried overnight at −35° C. under vacuum. Individual oocytes or blastocysts were extracted in nanoliter volume under oil. Assays were designed to measure ATP, citrate and G6PDH by linking with NAD/NADH or NADP/NADPH which are enzymatically amplified in a cycling reaction allowing products to be measured by fluorometry.

FVB/NJ mice [1] = test: Ovulation rate after PMSG and hCG in DHEA-fed mice; type: in vivo, mouse
Source text: (§2) Female FVB/NJ mice were obtained from Jackson Laboratories (Bar Harbor, Me., USA). Regular rodent chow was supplemented with DHEA at 0.01%, 0.1% and 0.6% w/w. Three-week-old mice had access to food and water ad libitum. Mice were fed control or DHEA-supplemented chow for two weeks. The Animal Studies Committee at Washington University School of Medicine reviewed and approved all animal experiments. Animals were maintained according to the Guide for the Care and Use of Laboratory Animals provided by the Institute for Laboratory Animal Research.
(§3) COCs were collected following superovulation with PMSG. Ovaries were removed and placed in M2 media (Sigma, St. Louis, Mo., USA). COCs were obtained by rupture of antral follicles with a syringe and needle. To collect denuded germinal vesicle (GV) oocytes, the cumulus cells were removed by gentle pipetting. The oviducts were removed from PMSG- and hCG-primed mice. The ampulla of the oviduct was punctured to release the clutch of ovulated oocytes 24 hr after hCG.

ESC-T cells [2] = test: EdU incorporation proliferation assay; type: cell-based, human
Source text: Other groups have shown that DHEA has anti-proliferative effects in a number of cell-lines and tissues. Thus, it was hypothesized that perhaps the PPP inhibitors prevent the proliferation of ESC-Ts and that this is an additional effect, independent of their role in decidualization inhibition. In a human uterus the stromal cells go through a cyclical oscillation between proliferation and differentiation, determined by the hormonal milieu. ESC-Ts in vitro remain in the proliferative state until they are exposed to differentiation media, which causes the cells to halt cell division and enter differentiation. Proliferation of ESC-T cells were monitored by EdU incorporation in vitro, which indicates entry into the S-phase of the cell cycle, in the absence of the differentiation hormones.
Following 60 hr of the treatment indicated in the experiment, EdU was added to the culture medium at a concentration of […]. Cells were harvested and stained using the Click-iT EdU Flow Cytometry Kit (Invitrogen). Quantitative data were collected using a BD FACSCalibur flow cytometer (Becton Dickinson, San Jose, Calif.) and analyzed with FlowJo software (TreeSTar, Inc., Ashland, Oreg.). For confocal microscopy, the cells were stained on coverslips using the same protocol. Nuclei were counterstained with TOPRO-iodide (Molecular probes) at a 1:500 dilution. Cells were mounted on slides using Vectashield (Vector Labs) and visualized using a Nikon C1 microscope.

FVB/NJ mice [3] = test: Serum hormone concentration in DHEA-fed mice (ELISA); type: in vivo, mouse
Source text: as §2
Control and DHEA-fed mice were superovulated with 10 IU pregnant mare serum gonadotropin (PMSG) by i.p. injection. DHEA, estradiol and testosterone serum concentrations were measured 48 hours later. For progesterone concentrations, mice were given an i.p. injection of 10 IU hCG 48 hours after PMSG and blood was collected 24 hours later. Mice were anesthetized with 50 μl ketamine and xylazine (1:1) and blood was collected by cardiac puncture. Serum was separated by centrifugation and stored at −20° C. ELISA assays were used to determine serum hormone concentrations (Alpco, Salem, N.H., USA).

denuded GV oocytes = test: ATP and citrate levels in single denuded GV oocytes of DHEA-fed mice; type: in vivo, mouse
Source text: as §3, §1

FVB/NJ mice [4] = test: Pregnancy rates / litters of DHEA-fed mice; type: in vivo, mouse
Protocol: To determine the reversibility of DHEA, mice were fed the two higher DHEA diets that prevented normal estrous cycles for two weeks followed by regular rodent chow for two weeks. Estrous cycles and pregnancy rates were recorded.
as §2
Control and DHEA-fed mice were mated with males of known fertility until three litters were delivered or up to 12 weeks.

oocytes from rats = conditions: DHEA 1 mg/100 g or 10 mg/100 g body weight, increased with dose and treatment duration; cited from earlier work
ESC-T cells [5] = test: In vitro decidualization of immortalized human ESC-T cells (decidualization marker mRNA, morphology); type: cell-based; design: Lowering of PRL and IGFBP1 mRNA expression vs differentiation media only / Morphological change during decidualization: dose or concentration left out as unconfirmed
Source text: Decidualization in human cells was monitored by measuring the mRNA expression of two decidualization markers, PRL and IGFBP1.
This NADP+ analog inhibits two enzymes in the PPP, G6PD and 6GPDH, which utilize NADP+ and convert it into NADPH.
Two major results of the PPP are the production of ribose 5-phosphate and regeneration of NADPH. Production of ribose 5-phosphate is a central component in the de novo synthesis of ribonucleosides (RNs) and deoxyribonucleosides (DRNs). […] To address this question, ESC-T cultures were used and the differentiation media was supplemented with RNs and DRNs during treatment with PPP inhibitors.
Endometrial tissue was obtained from human uteri after hysterectomy conducted for benign disease or from endometrial biopsies. Informed consent was obtained from each patient before surgery and protocols were approved by the Human Research Protection Office of Washington University (HRPO#07-0949). Tissues were placed in HBSS and transported to the laboratory. hESCs were isolated and cultured as previously described. In vitro decidualization was performed as previously described with several changes. Cells were seeded in 6-well plates at 2×10^5 cells/well in DMEM:F12 without phenol red, supplemented with 2% heat-inactivated charcoal dextran-stripped calf serum (HyClone) and 50 μg/ml penicillin/streptomycin (Cambrex Bio Science). Cells were treated with 1 μM medroxyprogesterone-17-acetate (MPA) (Sigma) and 0.5 mM N^6, 2′-O-Dibutyryladenosine 3′,5′-cyclic monophosphate sodium salt (db-cAMP) (Sigma). Control samples received 0.1% ethanol vehicle control.
Human immortalized ESC (ESC telomerase immortalized, ESC-T), were decidualized in vitro in the presence of 0, 2.5 or 5 mM GlcN for 9 days.

Structure (SMILES): C[C@]12CC[C@H](O)CC1=CC[C@@H]1[C@@H]2CC[C@]2(C)C(=O)CC[C@@H]12 [DHEA, dehydroepiandrosterone]
- Citrate levels of control (blastocysts; 10 μM DHEA): 86%
- Citrate levels of control (blastocysts; 100 μM DHEA): 68%
- Number of ovulated oocytes (FVB/NJ mice [1]; 0.01% DHEA diet): 10.8±2.8
- Number of ovulated oocytes (FVB/NJ mice [1]; 0.1% DHEA diet): 15±1.9
- Number of ovulated oocytes (FVB/NJ mice [1]; 0.6% DHEA diet): 7.1±1.4
- EdU-positive nuclei vs DMSO control (ESC-T cells [2]; 100 μM DHEA, 50 μM 6AN): drastic decrease
- Proliferation by EdU geometric mean fluorescence intensity (flow cytometry) (ESC-T cells [2]; 4 independent experiments): decreases proliferation of ESC-Ts in a concentration dependent manner
- Increase in DHEA serum levels (FVB/NJ mice [3]; 0.01% DHEA supplementation): 1.9 fold
- Serum DHEA (FVB/NJ mice [3]; DHEA diets 0.01%, 0.1%, 0.6%, 48 hours after PMSG): elevated in the DHEA-fed mice in a dose-dependent fashion
- Citrate, of control (denuded GV oocytes; 0.01% DHEA group): 90%
- Citrate compared to control (denuded GV oocytes; 0.1% DHEA group): 83%
- Litters while on diet (FVB/NJ mice [4]; 0.01% DHEA diet): the litters were smaller than the controls
- Litters while on diet (FVB/NJ mice [4]; 0.1% and 0.6% DHEA diet): did not deliver any pups
- Percentage of degenerated oocytes (oocytes from rats): ≤ 70%
- PRL and IGFBP1 decidualization markers (ESC-T cells [5]; 100 μM DHEA, day 4): drastic decrease
- Morphological change during decidualization (ESC-T cells [5]; DHEA): the morphological progression is halted
- Lowering of PRL and IGFBP1 mRNA expression vs differentiation media only (ESC-T cells [5]; DHEA, day 3 of in vitro culture): 5 fold
